According to patent publication US20210038661A1, “TREATMENT OF TUMORS BY A COMBINATION OF AN ONCOLYTIC ADENOVIRUS AND A CDK4/6 INHIBITOR” (KLINIKUM RECHTS DER ISAR DER TECHNISCHEN UNIVERSITÄT MÜNCHEN, priority 2018, published 2021):

How the values were obtained:
T24 cells [1] = assay: IC-80 value of PARPi in T24 cells; type: cell-based; settings: Homo sapiens, T-24
Description: 3000 T24 cells were seeded per well in 12-well plates and grown over-night in RPMI Medium containing 10% FCS at 37° C. Inhibitor-treatment of cells occurred 24 h past cell seeding and again 1 hour after infection by adding indicated concentration to the medium. Infection of cells took place 24 h past inhibitor-treatment in 250 μl Medium without serum. Fixation and SRB-staining took place at 1-5 days post infection (dpi: days post infection). 15 nM PARPi correspond to the IC-80 value in T24 cells.

UMUC3 cells [2] = assay: IC-80 value of PARPi in UMUC3 cells; type: cell-based; settings: Homo sapiens
Description: Seeding of UMUC-3: 3000 cells were seeded per well in 12-well plates and grown over-night in DMEM Medium containing 10% FCS at 37° C. Inhibitor-treatment of cell occurred 24 h past seeding and again 1 hour after infection by adding indicated concentration to the medium. Infection of cells took place 24 h past inhibitor-treatment. Fixation and SRB-staining took place at 1-6 days post infection (dpi: days post infection). 160 nM PARPi correspond to the IC-80 value in UMUC3 cells.

dl703 = assay: DNA-replication analysis of dl703 in UMUC cells treated with cell cycle inhibitors (fiber qPCR); type: cell-based, Mastadenovirus, Type C, Serotype 5
Description: To investigate the differences in replication of d1703 (Mantwill et al. 2013, Journal of Translational Medicine, 11, 216) under different treatment conditions, DNA-replication analysis was performed. 100.000 UMUC cells were seeded in 6-well plates and grown in DMEM medium containing 10% FCS in 5% CO2 conditions at 37° C. 24 hours post seeding cells were treated for 24 hours with 10 μM Lee (Ribociclib), 1 μM CI-1040, 10 μM Nutlin-3a and 10 μM Roscovertine and again after infection adding an appropriate amount of inhibitors to the medium. Infection with 50 MOI dl703 (Mastadenovirus, Type C, Serotype 5 with a 3.2 kb sized deletion in E1 region) took place 24 hours post treatment. After 4 and 48 hours post infection DNA were isolated and qPCR was performed using specific primers for the viral fiber gene. Fiber fwd. 5′-[…]-3′; Fiber rev. 5′-[…]-3′.

UMUC cells = assay: Western blot of Rb, phRB and E2F-1 in UMUC cells treated with cell cycle inhibitors; type: cell-based, human; settings: 24 hours post-treatment; for Rb, phRB and E2F-1 expression: indicated concentrations
Description: Western Blot analysis of UMUC cells treated with indicated concentrations of CI-1040, Roscovitine, Nutlin-3a and LEE011 (Ribociclib). 1×10^6 cells were seeded in 10 cm dishes. 24 hours post-treatment proteins were isolated using 1% SDS buffer, to achieve the disruption of the nuclear membrane. All samples were drawn up several times into a syringe to disrupt the DNA and subsequently centrifuged at 30000 rpm at 4° C. for 30 minutes. The supernatant was transferred to a new reaction tube and directly used for further steps or stored at −80° C. To separate the proteins a sodium dodecyl sulfate polyacrylamide gel electrophoresis was performed. By means of electrophoresis for approximately two hours at 100V at 4° C., 40 μg of total proteins were loaded and probed against specific indicated antibodies.

UMUC3 cells [3] = assay: Cell cycle analysis (EdU/PI flow cytometry) of UMUC3 cells; type: cell-based, human; settings: 48 hours; Roscovetine 10 μM, CI-1040 1 μM, Nutlin-3a 10 μM, LEE011 10 μM
Description: FIG. 10 is a bar diagram showing cell cycle distribution in UMUC3 cells, measured 48 hours post treatment, whereby the concentrations of the CDK4/6 inhibitors was as follows: Roscovetine: 10 μM, CI-1040: 1 μM, Nutlin-3a: 10 μM, and LEE011: 10 μM.
For cell cycle analysis cells were seeded in 6 well plates (2,5×10E4 c/well). 8 hours before infection with dl703, cells were treated with indicated concentration of cell cycle inhibitors. After infection with 10 MOI dl703 cells were again treated for 48 hours. Untreated cells and dl703 infected cells only, served as control. 48 h post infection cells were harvest by trypsinization and fixed with 80% ethanol while vortexing. To investigate the cell cycle status, fixed cells were centrifuged 5 min at RT and 300 g and ethanol was aspirated. Cells were resuspended and washed with 1%BSA-PBS (Bovine Serum Albumin) and again centrifuged. Cells were stained with EDU and cell cycle analysis were performed using the Click-iT™ Plus EdU Flow Cytometry Assay Kits, Catalog nos. C10632 from Thermo Fischer. In addition, after 3× times washing with 1% BSA/PBS cells were stained with PI (Propidium Iodine, 50 μg/ml). Measurement was directly performed after staining with a FACScalibur Flow Cytometry System. Data was analyzed with FlowJo software.

T24 cells [4] = assay: Potency assay (SRB) of T24 cells, XVir-N-31, Palbociclib and JQ-1; type: cell-based, human
Description: 5000 T24 cells were seeded in 12 well plates and grown in 1 ml RPMI-Medium containing 10% FCS. Next day cells were treated with 500 nM Palbociclib and 300 nM JQ-1. 24 hours post treatment cells were infected with indicated MOIs of XVir-N-31 in 200 μl RPMI-Medium containing no FCS. After 1 hour 800 μl RPMI-Medium containing 10% FCS were added into each well. In addition, 500 nM Palbociclib and 300 nM JQ-1 were added to the medium. SRB-Staining took place 5 days post infection. Mock treated cells were set 100% cell survival.

SK-N-MC cells [5] = assay: Potency assay (SRB) of SK-N-MC cells, XVir-N-31, Abemaciclib and JQ1; type: cell-based; settings: 500 nM JQ1 added to 200 nM Abemaciclib, XVir-N-31, 5 days post infection
Description: FIG. 16 is a bar diagram showing the result of a potency assay of SK-N-MC cells 5 days after exposure to XVir-N-31 alone, with 200 nM abemaciclib, 500 nM JQ1 or a combination of 200 nM abemaciclib and 500 nM JQ1, as percentage cell survival, whereby the cells were either not infected or infected with an MOI of 5, 10 or 20.
100.000 SK-N-MC cells/well were seeded in 12-well plates and grown in RPMI Medium containing 10% FCS at 5% CO2 at 37° C. Cells were treated with 200 nM Abemaciclib+500 nM JQ1 24 hours before and again 1 hour post infection by adding appropriate amount to the medium. Infection of XVir-N-31 took place in 500 μl in RPMI Medium without serum. SRB-Staining took place 5 days post infection. Mock treated cells were set 100% cell survival.

SK-N-MC cells [6] = assay: Cell cycle distribution (propidium iodine) of SK-N-MC cells; type: cell-based; settings: 48 hours post treatment
Description: 48 hours post treatment cells were washed twice took place with PBS (containing RNase A,100 U/ml). Cells were trypsinized and centrifuged at 1500 rpm, 4° C. for 5 min. Cells are fixed by adding slowly 1 ml of ice-cold 80% Ethanol drop by drop to the pellet and incubated overnight. Staining was performed by adding 1 ml of staining solution (Propidium Iodine,50 μg/ml) to the cells and incubating 30-60 min at RT with gentle rocking. MK: MK-1775; LY: LY-2835219.

T24 = assay: IC50 concentration of PD-0332991 in bladder cancer cell line T24; type: cell-based; settings: Homo sapiens, T-24
Description: (§1) The class of CDK4/6 inhibitors as subject to Example 5 requires expression of RB. Therefore, three RB positive and two RB negative bladder cancer derived cell lines were used and the cells treated with the combination therapy. Cell lines were pretreated for 24 hours with an IC50 concentration of PD-0332991 (T24: 500 nM, RT112: 2000 nM, 253J: 100 nM) and infected with XVir-N-31(T24 M0150, 253J MOI 25, RT112 MOI450). Values are the average of at least 2 independent experiments. Error bars show the standard error. Four dpi, cell viability was measured using SRB assays (a, c). (b, d) Lysates of cells were prepared 3 dpi and a titer test was performed on Hek293 cells. Viral titer is shown as fold change relative to control

RT112 = assay: IC50 concentration of PD-0332991 in bladder cancer cell line RT112; type: cell-based; settings: Homo sapiens, RT-112
Description: as §1

253J = assay: IC50 concentration of PD-0332991 in bladder cancer cell line 253J; type: cell-based; settings: Homo sapiens
Description: as §1

Cn1ncnc1[C@H]1c2n[nH]c(=O)c3cc(F)cc(c23)N[C@@H]1c1ccc(F)cc1 [BMN673]
IC80 (T24 cells [1]): 15 nM
IC80 (UMUC3 cells [2]): 160 nM

O=C(NOCC1CC1)c1ccc(F)c(F)c1Nc1ccc(I)cc1Cl [CI-1040]
viral DNA replication of dl703 (dl703; 1 μM, 50 MOI dl703): much lower compared to Ribociclib treated cells
E2F-1 as well as Rb and phRb expression (UMUC cells; 1 μM): induced inhibition
cell cycle distribution (UMUC3 cells [3]): clear G1-arrest

Cc1sc2c(c1C)C(c1ccc(Cl)cc1)=N[C@@H](CC(=O)OC(C)(C)C)c1nnc(C)n1-2 [JQ1, thieno-triazolo-1-4-diazepine]
cell killing capacity of XVir-N-31 (T24 cells [4]; 300 nM JQ-1 with 500 nM Palbociclib, low MOIs, 5 days post infection): increased the cell killing capacity
cell killing of XVir-N-31 (T24 cells [4]; mono-therapy with 300 nM JQ1, 10 and 20 MOI): did not increase cell killing
cell killing (SK-N-MC cells [5]): did not increase cell killing

CN(C)C(=O)c1cc2cnc(Nc3ccc(N4CCNCC4)cn3)nc2n1C1CCCC1 [LEE011, ribociclib]
increase of viral DNA replication of dl703 (dl703; 10 μM, 50 MOI dl703, 48 hours post infection): ~100 fold
E2F-1 as well as Rb and phRb expression (UMUC cells; 10 μM): induced inhibition
cell cycle distribution (UMUC3 cells [3]): clear G1-arrest

CCN1CCN(Cc2ccc(Nc3ncc(F)c(-c4cc(F)c5nc(C)n(C(C)C)c5c4)n3)nc2)CC1 [LY-2835219, abemaciclib]
cell cycle distribution (SK-N-MC cells [6]): no effect

C=CCn1c(=O)c2cnc(Nc3ccc(N4CCN(C)CC4)cc3)nc2n1-c1cccc(C(C)(C)O)n1 [MK-1775]
cell cycle distribution (SK-N-MC cells [6]; 500 nM, alone): increase of cells in G2/M

COc1ccc(C2=N[C@@H](c3ccc(Cl)cc3)[C@@H](c3ccc(Cl)cc3)N2C(=O)N2CCNC(=O)C2)c(OC(C)C)c1 [Nutlin-3a]
Rb, phRB and E2F-1 expression (UMUC cells): no pronounced effect
cell cycle distribution (UMUC3 cells [3]): only little or no effect

CC(=O)c1c(C)c2cnc(Nc3ccc(N4CCNCC4)cn3)nc2n(C2CCCC2)c1=O [PD-0332991, palbociclib]
IC50 (T24): 500 nM
IC50 (RT112): 2000 nM
IC50 (253J): 100 nM

CC[C@H](CO)Nc1nc(NCc2ccccc2)c2ncn(C(C)C)c2n1 [Roscovitine]
Rb, phRB and E2F-1 expression (UMUC cells): no pronounced effect
cell cycle distribution (UMUC3 cells [3]): slight increase of G2/m arrested cells
